Measurements published in EP4806891A1 (Kangbaida (Sichuan) Biotechnology Co., Ltd., priority 2023, dated 2025).

Each compound was assayed against T1, HEK-Blue-hTLR9 cells (Homo sapiens, UniProt Q9NR96) (assay: HEK-Blue-hTLR9 cell inhibition assay). Conditions: ODN2006 1 µM, 16 h, OD 620 nm, read-out: TLR9 IC50.
T1 construct: expressed in transfected cells; host or cells: HEK-Blue-hTLR9 cells (HEK293-derived reporter line)
T1 sequence (Q9NR96 26-1032): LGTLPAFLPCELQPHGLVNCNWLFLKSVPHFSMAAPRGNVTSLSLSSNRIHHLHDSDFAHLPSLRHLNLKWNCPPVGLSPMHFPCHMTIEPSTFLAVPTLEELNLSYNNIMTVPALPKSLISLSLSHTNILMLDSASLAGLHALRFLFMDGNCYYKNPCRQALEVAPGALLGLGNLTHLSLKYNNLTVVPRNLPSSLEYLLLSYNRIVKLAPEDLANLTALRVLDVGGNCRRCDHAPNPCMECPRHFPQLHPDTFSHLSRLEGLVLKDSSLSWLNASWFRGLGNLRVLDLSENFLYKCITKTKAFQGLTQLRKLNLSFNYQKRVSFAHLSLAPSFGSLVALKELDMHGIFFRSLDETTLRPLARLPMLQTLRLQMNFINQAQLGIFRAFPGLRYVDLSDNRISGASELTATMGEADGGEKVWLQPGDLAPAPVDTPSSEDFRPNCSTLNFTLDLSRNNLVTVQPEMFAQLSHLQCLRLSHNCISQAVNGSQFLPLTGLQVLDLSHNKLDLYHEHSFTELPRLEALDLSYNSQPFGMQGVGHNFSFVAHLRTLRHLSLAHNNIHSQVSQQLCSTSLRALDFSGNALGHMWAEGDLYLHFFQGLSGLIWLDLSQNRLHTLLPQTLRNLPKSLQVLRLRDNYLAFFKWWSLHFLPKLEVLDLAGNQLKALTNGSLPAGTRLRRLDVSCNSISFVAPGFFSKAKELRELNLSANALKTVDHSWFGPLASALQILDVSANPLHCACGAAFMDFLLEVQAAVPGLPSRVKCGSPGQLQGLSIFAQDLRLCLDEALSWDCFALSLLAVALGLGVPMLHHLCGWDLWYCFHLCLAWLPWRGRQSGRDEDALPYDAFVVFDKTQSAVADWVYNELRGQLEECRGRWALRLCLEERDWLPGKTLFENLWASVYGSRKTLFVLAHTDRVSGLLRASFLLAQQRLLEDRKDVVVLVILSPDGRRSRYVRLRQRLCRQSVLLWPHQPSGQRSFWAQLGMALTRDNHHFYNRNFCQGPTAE
Type: cell-based
Summary of the method: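 Cells were pre-incubated 4 h, then co-treated 16 h at 37 °C with compound (10 doses, 0.5–10000 nM final) plus R848 (0.8 µM for TLR7, 3 µM for TLR8) or ODN2006 (1 µM, TLR9). Reporter OD620 gave inhibition relative to DMSO blank and agonist-only controls; IC50 came from curve fitting.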

Row | Compound | IC50 [nM]
1 | N#Cc1ccc(N2C[C@]3(c4nnc([C@H]5CN(CC(N)=O)CCO5)o4)C[C@]3(C(F)(F)F)C2)c2cccnc12 [Compound 56, 2-((R)-2-(5-((1S,5R)-3-(8-cyanoquinolin-5-yl)-5-(trifluoromethyl)-3-azabicyclo[3.1.0]hexan-1-yl)-1,3,4-oxadiazol-2-yl)morpholino)acetamide] | > 10000
2 | N#Cc1ccc(N2C[C@]3(c4nnc(C5(F)CCNCC5)o4)C[C@]3(C(F)(F)F)C2)c2cccnc12 [Compound 60, 5-((1S,5R)-1-(5-(4-fluoropiperidin-4-yl)-1,3,4-oxadiazol-2-yl)-5-(trifluoromethyl)-3-azabicyclo[3.1.0]hexan-3-yl)quinoline-8-carbonitrile] | < 1000
3 | CN1CCC(n2cc([C@]34CN(c5ccc(C#N)c6ncccc56)C[C@@]3(C(F)(F)F)C4)nn2)CC1 [Compound 71, 5-((1S,5R)-1-(1-(1-methylpiperidin-4-yl)-1H-1,2,3-triazol-4-yl)-5-(trifluoromethyl)-3-azabicyclo[3.1.0]hexan-3-yl)quinoline-8-carbonitrile] | > 1000
4 | FC(F)(F)c1ccc(N2C[C@]3(c4nnc(C5CCNCC5)o4)C[C@]3(C(F)(F)F)C2)c2cccnc12 [Compound 75, 2-(piperidin-4-yl)-5-((1S,5R)-5-(trifluoromethyl)-3-(8-(trifluoromethyl)quinolin-5-yl)-3-azabicyclo[3.1.0]hexan-1-yl)-1,3,4-oxadiazole] | > 1000
5 | FC(F)(F)c1ccc(N2C[C@]3(c4nnc(C5CCN(CC6CC6)CC5)o4)C[C@]3(C(F)(F)F)C2)c2cccnc12 [Compound 76, 2-(1-(cyclopropylmethyl)piperidin-4-yl)-5-((1S,5R)-5-(trifluoromethyl)-3-(8-(trifluoromethyl)quinolin-5-yl)-3-azabicyclo[3.1.0]hexan-1-yl)-1,3,4-oxadiazole] | > 1000
6 | CN1[C@@H]2CC[C@H]1C[C@H](c1nnc([C@]34CN(c5ccc(C(F)(F)F)c6ncccc56)C[C@@]3(C(F)(F)F)C4)o1)C2 [Compound 79, 2-((1R,3S,5S)-8-methyl-8-azabicyclo[3.2.1]octan-3-yl)-5-((1S,5R)-5-(trifluoromethyl)-3-(8-(trifluoromethyl)quinolin-5-yl)-3-azabicyclo[3.1.0]hexan-1-yl)-1,3,4-oxadiazole] | > 1000
7 | NC12CCC(c3nnc([C@]45CN(c6ccc(C(F)(F)F)c7ncccc67)C[C@@]4(C(F)(F)F)C5)o3)(CC1)CC2 [Compound 81, 4-(5-((1S,5R)-5-(trifluoromethyl)-3-(8-(trifluoromethyl)quinolin-5-yl)-3-azabicyclo[3.1.0]hexan-1-yl)-1,3,4-oxadiazol-2-yl)bicyclo[2.2.2]octan-1-amine] | > 1000
8 | CN1CCC(Oc2nnc([C@]34CN(c5ccc(C(F)(F)F)c6ncccc56)C[C@@]3(C(F)(F)F)C4)o2)CC1 [Compound 92, 2-((1-methylpiperidin-4-yl)oxy)-5-((1S,5R)-5-(trifluoromethyl)-3-(8-(trifluoromethyl)quinolin-5-yl)-3-azabicyclo[3.1.0]hexan-1-yl)-1,3,4-oxadiazole] | > 1000
9 | CN1CCC(Oc2nnc([C@]34CN(c5ccc(OC(F)(F)F)c6ncccc56)C[C@@]3(C(F)(F)F)C4)o2)CC1 [Compound 93, 2-((1-methylpiperidin-4-yl)oxy)-5-((1S,5R)-5-(trifluoromethyl)-3-(8-(trifluoromethoxy)quinolin-5-yl)-3-azabicyclo[3.1.0]hexan-1-yl)-1,3,4-oxadiazole] | > 10000

The next lines start with the values.

Row | IC50 [nM] | Compound
10 | > 1000 | CN1CCC(c2nnc([C@]34CN(c5ccc(C#N)n6ncc(F)c56)C[C@@]3(C(F)(F)F)C4)o2)CC1 [Compound 57, 3-fluoro-4-((1S,5R)-1-(5-(1-methylpiperidin-4-yl)-1,3,4-oxadiazol-2-yl)-5-(trifluoromethyl)-3-azabicyclo[3.1.0]hexan-3-yl)pyrazolo[1,5-a]pyridine-7-carbonitrile]
11 | > 1000 | CN1CCC(c2nnc([C@]34CN(c5ccc(C#N)n6nccc56)C[C@@]3(C(F)(F)F)C4)o2)CC1 [Compound 59, 4-((1S,5R)-1-(5-(1-methylpiperidin-4-yl)-1,3,4-oxadiazol-2-yl)-5-(trifluoromethyl)-3-azabicyclo[3.1.0]hexan-3-yl)pyrazolo[1,5-a]pyridine-7-carbonitrile]
12 | > 1000 | COc1ccc(N2C[C@]3(c4nnc(C5CCN(C)CC5)o4)C[C@]3(C(F)(F)F)C2)c2cccnc12 [Compound 66, 2-((1S,5R)-3-(8-methoxyquinolin-5-yl)-5-(trifluoromethyl)-3-azabicyclo[3.1.0]hexan-1-yl)-5-(1-methylpiperidin-4-yl)-1,3,4-oxadiazole]
13 | > 10000 | NC(=O)CN1CCC(c2nnc([C@]34CN(c5ccc(C(F)(F)F)c6ncccc56)C[C@@]3(C(F)(F)F)C4)o2)CC1 [Compound 77, 2-(4-(5-((1S,5R)-5-(trifluoromethyl)-3-(8-(trifluoromethyl)quinolin-5-yl)-3-azabicyclo[3.1.0]hexan-1-yl)-1,3,4-oxadiazol-2-yl)piperidin-1-yl)acetamide]
14 | > 1000 | N#Cc1ccc(N2C[C@]3(c4nnc(C5CCNCC5)o4)C[C@]3(C(F)(F)F)C2)c2c(F)cnn12 [Compound 80, 3-fluoro-4-((1S,5R)-1-(5-(piperidin-4-yl)-1,3,4-oxadiazol-2-yl)-5-(trifluoromethyl)-3-azabicyclo[3.1.0]hexan-3-yl)pyrazolo[1,5-a]pyridine-7-carbonitrile]
15 | > 1000 | CN1CCC(c2nnc([C@]34CN(c5ccc(C#N)n6ncc(Br)c56)C[C@@]3(C(F)(F)F)C4)o2)CC1 [Compound 83, 3-bromo-4-((1S,5R)-1-(5-(1-methylpiperidin-4-yl)-1,3,4-oxadiazol-2-yl)-5-(trifluoromethyl)-3-azabicyclo[3.1.0]hexan-3-yl)pyrazolo[1,5-a]pyridine-7-carbonitrile]
16 | > 1000 | CN1CCC(c2nnc([C@]34CN(c5ccc(C#N)n6ncc(Cl)c56)C[C@@]3(C(F)(F)F)C4)o2)CC1 [Compound 84, 3-chloro-4-((1S,5R)-1-(5-(1-methylpiperidin-4-yl)-1,3,4-oxadiazol-2-yl)-5-(trifluoromethyl)-3-azabicyclo[3.1.0]hexan-3-yl)pyrazolo[1,5-a]pyridine-7-carbonitrile]
17 | > 1000 | CN1CCC(c2nnc([C@]34CN(c5c(Br)cc(C#N)n6ncc(Br)c56)C[C@@]3(C(F)(F)F)C4)o2)CC1 [Compound 85, 3,5-dibromo-4-((1S,5R)-1-(5-(1-methylpiperidin-4-yl)-1,3,4-oxadiazol-2-yl)-5-(trifluoromethyl)-3-azabicyclo[3.1.0]hexan-3-yl)pyrazolo[1,5-a]pyridine-7-carbonitrile]
18 | > 1000 | CN1CCC(c2nnc([C@]34CN(c5c(Br)cc(C#N)n6nccc56)C[C@@]3(C(F)(F)F)C4)o2)CC1 [Compound 86, 5-bromo-4-((1S,5R)-1-(5-(1-methylpiperidin-4-yl)-1,3,4-oxadiazol-2-yl)-5-(trifluoromethyl)-3-azabicyclo[3.1.0]hexan-3-yl)pyrazolo[1,5-a]pyridine-7-carbonitrile]
19 | > 1000 | CN1CCC(c2nnc([C@]34CN(c5ccc(C(F)(F)F)n6nccc56)C[C@@]3(C(F)(F)F)C4)o2)CC1 [Compound 87, 2-(1-methylpiperidin-4-yl)-5-((1S,5R)-5-(trifluoromethyl)-3-(7-(trifluoromethyl)pyrazolo[1,5-a]pyridin-4-yl)-3-azabicyclo[3.1.0]hexan-1-yl)-1,3,4-oxadiazole]
20 | > 1000 | CN1CCC(F)(c2nnc([C@]34CN(c5ccc(C#N)n6nccc56)C[C@@]3(C(F)(F)F)C4)o2)CC1 [Compound 90, 4-((1S,5R)-1-(5-(4-fluoro-1-methylpiperidin-4-yl)-1,3,4-oxadiazol-2-yl)-5-(trifluoromethyl)-3-azabicyclo[3.1.0]hexan-3-yl)pyrazolo[1,5-a]pyridine-7-carbonitrile]
21 | > 10000 | CN1CCC(c2nnc([C@]34CN(c5ccc(C#N)c6ncnn56)C[C@@]3(C(F)(F)F)C4)o2)CC1 [Compound 91, 5-((1S,5R)-1-(5-(1-methylpiperidin-4-yl)-1,3,4-oxadiazol-2-yl)-5-(trifluoromethyl)-3-azabicyclo[3.1.0]hexan-3-yl)-[1,2,4]triazolo[1,5-a]pyridine-8-carbonitrile]
